The subject of one assay is 3T3-L1 adipocytes. The experiment in a line: DNA synthesis / cell proliferation (CyQUANT). The class given is cell-based, murine. The conditions noted are these: 48 hours. The method, then:
3T3-L1 preadipocytes were incubated at a density of 8000 cells/cm^2 (10 cm^2 dish) and grown in Dulbecco's modified Eagle's medium (DMEM) containing 10% FBS and antibiotics (adipocyte medium) at 37° C. in 5% CO2 in air. Confluent preadipocytes were induced to differentiate with a standard differentiation medium consisting of DMEM-F 10 (1:1, vol/vol) medium supplemented with 1% FBS, 1 μM dexamethasone, IBMX (0.5 mM) and antibiotics (1% Penicillin-Streptomycin). Preadipocytes were maintained in this differentiation medium for 3 days and subsequently cultured in adipocyte medium. Cultures were re-fed every 2-3 days to allow 90% of cells to reach full differentiation before conducting chemical treatment. Chemicals were freshly diluted in adipocyte medium before treatment. Cells were washed with fresh adipocyte medium, re-fed with medium containing the different treatments, and incubated at 37° C. in 5% CO2 in air before analysis. Cell viability was measured via trypan blue exclusion. Cells were plated in DMEM with different treatment in duplicate in 96-well plates. After 48 h, a CyQUANT Cell Proliferation Kit (Molecular Probes, Eugene, Oreg.) was used following the manufacturer's protocol a microplate fluorometer (Packard Instrument Company, Inc., Downers Grove, Ill.) was used to measure CyQUANT fluorescence. Cell viability was determined by Trypan blue exclusion examination.

The next assay has as its system IL-6. In words: IL-6 expression in differentiated 3T3-L1 adipocytes. It is filed as cell-based, mouse. The conditions noted are these: for effect on IL-6 expression: 10 nmol/L, 48 h, adipocytes cultured alone. The method, then:
3T3-L1 pre-adipocytes were incubated at a density of 8000 cells/cm^2 (10 cm^2 dish) and grown in Dulbecco's modified Eagle's medium (DMEM) containing 10% FBS and antibiotics (adipocyte medium) at 37° C. in 5% CO2 in air. Confluent pre-adipocytes were induced to differentiate with a standard differentiation medium consisting of DMEM-F10 (1:1, vol/vol) medium supplemented with 1% fetal bovine serum (FBS), 1 μM dexamethasone, isobutylmethylxanthine (IBMX) (0.5 mM) and antibiotics (1% Penicillin-Streptomycin). Pre-adipocytes were maintained in this differentiation medium for 3 days and subsequently cultured in adipocyte medium. Cultures were re-fed every 2-3 days to allow 90% cells to reach fully differentiation before conducting chemical treatment.
Cells were incubated in serum free medium overnight before chemical treatment. Chemicals were freshly diluted in adipocyte medium before treatment. […] Cell viability was measured via trypan blue exclusion.
Adipocyte and muscle 18s, TNFα, IL-6, IL-8, IL-15 and adiponectin were quantitatively measured using a smart cycler real-time PCR system (Cepheid, Sunnyvale, Calif.) with a TaqMan 1000 Core Reagent Kit (Applied Biosystems, Branchburg, N.J.). The primers and probe sets were obtained from Applied Biosystems TaqMan® Assays-on-Demand™ Gene Expression primers and probe set collection and utilized according to manufacture's instructions. Pooled adipocyte total RNA was serial-diluted in the range of 1.5625-25 ng and used to establish a standard curve; and total RNA for the unknown samples were also diluted in this range. Reactions of quantitative RT-PCR for standards and unknown samples were also performed according to the instructions of Smart Cycler System (Cepheid, Sunnyvale, Calif.) and TaqMan Real Time PCR Core Kit (Applied Biosystems, Branchburg, N.J.). The mRNA quantitation for each sample was further normalized using the corresponding 18s quantitation.
RAW 264 macrophages and 3T3-L1 preadipocytes (American Type Culture Collection) were incubated at a density of 8000 cells/cm2 (10 cm2 dish) and grown in Dulbecco's modified Eagle's medium (DMEM) containing 10% FBS and antibiotics (adipocyte medium) at 37° C. in 5% CO2 in air. […]
Adipocyte and muscle 18s, CD14, TNFα, MIP, M-CSF, IL-6 and MCP-1 were quantitatively measured using a Smart Cycler Real Time PCR System (Cepheid, Sunnyvale, Calif.) with a TaqMan 1000 Core Reagent Kit (Applied Biosystems, Branchburg, N.J.). […] Reactions of quantitative RT-PCR for standards and unknown samples were also performed according to the instructions of Smart Cycler System (Cepheid, Sunnyvale, Calif.) and TaqMan Real Time PCR Core Kit (Applied Biosystems, Branchburg, N.J.). The mRNA quantitation for each sample was further normalized using the corresponding 18s quantitation.

A further assay concerns adiponectin. In words: Adiponectin expression in differentiated 3T3-L1 adipocytes. The conditions noted are these: 100 nmol/L H2O2 or 1 μmol/L α±tocopherol, 48 h. The class given is cell-based, mouse. How it is done: (§1) 3T3-L1 pre-adipocytes were incubated at a density of 8000 cells/cm^2 (10 cm^2 dish) and grown in Dulbecco's modified Eagle's medium (DMEM) containing 10% FBS and antibiotics (adipocyte medium) at 37° C. in 5% CO2 in air. Confluent pre-adipocytes were induced to differentiate with a standard differentiation medium consisting of DMEM-F10 (1:1, vol/vol) medium supplemented with 1% fetal bovine serum (FBS), 1 μM dexamethasone, isobutylmethylxanthine (IBMX) (0.5 mM) and antibiotics (1% Penicillin-Streptomycin). Pre-adipocytes were maintained in this differentiation medium for 3 days and subsequently cultured in adipocyte medium. Cultures were re-fed every 2-3 days to allow 90% cells to reach fully differentiation before conducting chemical treatment. […] Cell viability was measured via trypan blue exclusion. Adipocyte and muscle 18s, TNFα, IL-6, IL-8, IL-15 and adiponectin were quantitatively measured using a smart cycler real-time PCR system (Cepheid, Sunnyvale, Calif.) with a TaqMan 1000 Core Reagent Kit (Applied Biosystems, Branchburg, N.J.). […] Reactions of quantitative RT-PCR for standards and unknown samples were also performed according to the instructions of Smart Cycler System (Cepheid, Sunnyvale, Calif.) and TaqMan Real Time PCR Core Kit (Applied Biosystems, Branchburg, N.J.). The mRNA quantitation for each sample was further normalized using the corresponding 18s quantitation.

Another assay deals with IL-15. The experiment in a line: IL-15 expression in differentiated 3T3-L1 adipocytes. The class given is cell-based, mouse. How it is done: as §1

Turning to `OO` [H2O2, hydrogen peroxide], in the assay with 3T3-L1 adipocytes (H2O2 100 nmol/L, p<0.001), the “increase of total DNA of cultured cells” value was 39%. The “increase of IL-6 expression” value in the assay with IL-6 (100 nmol/L H2O2, 48 h, p<0.001) came out at 167%. Further, the “effect on adiponectin production” value with adiponectin was “without significant effect”. The “effect on IL-15 expression” value with IL-15 (100 nmol/L H2O2, 48 h) is reported as “no direct effect”.

On to `Cc1c(C)c2c(c(C)c1O)CC[C@@](C)(CCC[C@H](C)CCC[C@H](C)CCCC(C)C)O2` [α-tocopherol], for which, in the assay on 3T3-L1 adipocytes (with H2O2 100 nmol/L, α-tocopherol 1 μmol/L, nifedipine 10 μmol/L), the “effect on H2O2 induced DNA synthesis” value is recorded as “completely blocked”. For the same molecule, in the assay on IL-6 (1 μmol/L α±tocopherol plus 100 nmol/L H2O2, 48 h, p=0.016), the “effect on hydrogen peroxide increased IL-6 expression” value is on record as “attenuated”. For the same molecule, the “effect on adiponectin production” value with adiponectin is “increased”. In addition, in the assay with IL-15 (1 μmol/L α±tocopherol added to 100 nmol/L H2O2, 48 h, P=0.043), the “increase of IL-15 as compared to H2O2-treated cells” value stood at 2.2 fold.

Regarding `C=C1/C(=C\C=C2/CCC[C@]3(C)[C@@H]([C@H](C)CCCC(C)(C)O)CC[C@@H]23)C[C@@H](O)C[C@@H]1O` [calcitriol, 1, 25-Dihydroxyvitamin D], in the assay with 3T3-L1 adipocytes (added to glucose 30 mmol/L, nifedipine 10 μmol/L), the “effect on glucose induced DNA synthesis” value is reported as “augmented”. The “effect on IL-6 expression” value is on record as “markedly stimulate” in the assay on IL-6 and “markedly increased” in the assay on IL-6 (listed as 1α, 25-(OH)2-D3).

The record behind these values is patent US20070092577A1, “Dietary calcium for reducing the production of reactive oxygen species” (University of Tennessee Research Foundation, priority 2005, published 2007).
